In ChEMBL document CHEMBL5113475, “10-Alkoxy-anthracenyl-isoxazole analogs have sub-micromolar activity against a Glioblastoma multiforme cell line” (Bioorg Med Chem, 2022) one finds IC50 and Activity data, which are given here for 7 compounds.

As usually defined, the IC50 is the concentration at which inhibition is half-maximal.

Calls of active or inactive are those of the source. The calls are words filed in the database; no cut-off is given here.

In one assay the test system is SNB-19. In words: Antitumor activity against human SNB-19 cells assessed as cell growth inhibition measured after 24 hrs by MTT colorimetric assay. In kind it is functional, cell-based. Particulars: SNB-19, 24 h. (Tetrazolium dyes change colour on reduction, which living cells bring about.)
Turning to `COc1ccc2c(OC)c3ccccc3c(-c3noc(C)c3C(=O)Nc3cc(C(=O)N(CCCN(C)C)CCCN(C)C)n(C)c3)c2c1Cl`, the IC50 was determined as 12.6 µM. Turning to `Cc1onc(-c2c3ccccc3c(Oc3cccc4ccccc34)c3ccccc23)c1C(=O)Nc1cc(C(=O)N(CCCN(C)C)CCCN(C)C)n(C)c1`, the IC50 is 1.07 µM. Same read-out and setting: as for `Cc1onc(-c2c3ccccc3c(Oc3ccccc3)c3ccccc23)c1C(=O)Nc1cc(C(=O)N(CCCN(C)C)CCCN(C)C)n(C)c1`, the figure is 1.03 µM; as for `COc1c2ccccc2c(-c2noc(C)c2C(=O)Nc2cc(C(=O)N(CCCN(C)C)CCCN(C)C)n(C)c2)c2ccccc12`, 7.77 µM.

With `COc1ccc2c(OC)c3ccccc3c(-c3noc(C)c3C(=O)Nc3cc(C(=O)N(CCCN(C)C)CCCN(C)C)n(C)c3)c2c1`, the IC50 is 4.8 µM.

For the compound `Cc1onc(-c2c3ccccc3c(Oc3ccc(-c4ccccc4)cc3)c3ccccc23)c1C(=O)Nc1cc(C(=O)N(CCCN(C)C)CCCN(C)C)n(C)c1`, the IC50 is 0.58 µM.

Consider `Cc1onc(-c2c3ccccc3c(Oc3ccc4ccccc4c3)c3ccccc23)c1C(=O)Nc1cc(C(=O)N(CCCN(C)C)CCCN(C)C)n(C)c1`, for which the IC50 was 3.1 µM.

The test system of the next assay is Quadruplex DNA. In words: Stabilization of c-Myc G-quadruplex DNA (unknown origin ) assessed as increase in melting temperature at 2 equivalent by CD spectroscopy. In kind it is nucleic-acid assay. To be noted: dose 2.0 equiv.
In the case of `Cc1onc(-c2c3ccccc3c(Oc3ccc(-c4ccccc4)cc3)c3ccccc23)c1C(=O)Nc1cc(C(=O)N(CCCN(C)C)CCCN(C)C)n(C)c1`, the outcome was Active.
